From PubChem BioAssay AID2060905 (Molecular Pharmacology Branch, DTP, NCI, 2025)
Blank lines part the entries; values can stand above or below the compound they belong to.

System: 282377-053-R-J1-PDC complex spheroid viability
Experiment: Anticancer human tumor 282377-053-R-J1-PDC patient-derived colon adenocarcinoma cell line growth inhibition [RAS]
Conditions: for IC50: curve of first compound; for viability, T/C: stronger effect = lower value
Procedure, shortened: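 Agents were tested in combination matrices in half-log decrements from a top concentration at or near clinical Cmax (10 microM if undetermined). Targets were multi-cell spheroids of tumour lines plus HUVEC and MSC stromal cells.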

[1] = second compound 0.000949 µM, first compound 0.0316 µM
[2] = second compound 0.000949 µM, first compound 0.1 µM
[3] = second compound 0.000949 µM, first compound 0.316 µM
[4] = second compound 0.000949 µM, first compound 1 µM
[5] = second compound 0.000949 µM, first compound 3.16 µM
[6] = second compound 0.000949 µM, first compound 10 µM
[7] = second compound 0.003 µM, first compound 0.0316 µM
[8] = second compound 0.003 µM, first compound 0.1 µM
[9] = second compound 0.003 µM, first compound 0.316 µM
[10] = second compound 0.003 µM, first compound 1 µM
[11] = second compound 0.003 µM, first compound 3.16 µM
[12] = second compound 0.003 µM, first compound 10 µM
[13] = second compound 0.00949 µM, first compound 0.0316 µM
[14] = second compound 0.00949 µM, first compound 0.1 µM
[15] = second compound 0.00949 µM, first compound 0.316 µM
[16] = second compound 0.00949 µM, first compound 1 µM
[17] = second compound 0.00949 µM, first compound 3.16 µM
[18] = second compound 0.00949 µM, first compound 10 µM
[19] = second compound 0.03 µM, first compound 0.0316 µM
[20] = second compound 0.03 µM, first compound 0.1 µM
[21] = second compound 0.03 µM, first compound 0.316 µM
[22] = second compound 0.03 µM, first compound 1 µM
[23] = second compound 0.03 µM, first compound 3.16 µM
[24] = second compound 0.03 µM, first compound 10 µM
[25] = second compound 0.0949 µM, first compound 0.0316 µM
[26] = second compound 0.0949 µM, first compound 0.1 µM
[27] = second compound 0.0949 µM, first compound 0.316 µM
[28] = second compound 0.0949 µM, first compound 1 µM
[29] = second compound 0.0949 µM, first compound 3.16 µM
[30] = second compound 0.0949 µM, first compound 10 µM
[31] = second compound 0.3 µM, first compound 0.0316 µM
[32] = second compound 0.3 µM, first compound 0.1 µM
[33] = second compound 0.3 µM, first compound 0.316 µM
[34] = second compound 0.3 µM, first compound 1 µM
[35] = second compound 0.3 µM, first compound 3.16 µM
[36] = second compound 0.3 µM, first compound 10 µM
[37] = second compound 0.000949 µM, first compound 0.00316 µM
[38] = second compound 0.000949 µM, first compound 0.01 µM
[39] = second compound 0.003 µM, first compound 0.00316 µM
[40] = second compound 0.003 µM, first compound 0.01 µM
[41] = second compound 0.00949 µM, first compound 0.00316 µM
[42] = second compound 0.00949 µM, first compound 0.01 µM
[43] = second compound 0.03 µM, first compound 0.00316 µM
[44] = second compound 0.03 µM, first compound 0.01 µM
[45] = second compound 0.0949 µM, first compound 0.00316 µM
[46] = second compound 0.0949 µM, first compound 0.01 µM
[47] = second compound 0.3 µM, first compound 0.00316 µM
[48] = second compound 0.3 µM, first compound 0.01 µM
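Further: spheroids exposed to agents for seven days before readout.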
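Wherever viability, T/C is given: luminescence viability as percent of DMSO vehicle control wells.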

IC50 (second compound 0.000949 µM): > 10000 nM
IC50 (second compound 0.003 µM): > 10000 nM
IC50 (second compound 0.00949 µM): > 10000 nM
IC50 (second compound 0.03 µM): > 10000 nM
IC50 (second compound 0.0949 µM): > 10000 nM
IC50 (second compound 0.3 µM): > 10000 nM
Compound: CC(C)NCC(C(=O)N1CCN(c2ncnc3c2C(C)CC3O)CC1)c1ccc(Cl)cc1 (stereo not drawn) + CCn1c(-c2cccnc2C(C)OC)c2c3cc(ccc31)N1CCOC(CC(NC(=O)C(C(C)C)N(C)C(=O)C3(F)CCN(C(=O)C#CC(C)(C)N(C)C)CC3)C(=O)N3CCCC(N3)C(=O)OCC(C)(C)C2)C1
viability, T/C [1]: 96.4%
viability, T/C [2]: 99.7%
viability, T/C [3]: 109%
viability, T/C [4]: 89.7%
viability, T/C [5]: 78.3%
viability, T/C [6]: 70.6%
viability, T/C [7]: 104%
viability, T/C [8]: 96.5%
viability, T/C [9]: 91.9%
viability, T/C [10]: 82.2%
viability, T/C [11]: 79.5%
viability, T/C [12]: 78.2%
viability, T/C [13]: 114%
viability, T/C [14]: 93%
viability, T/C [15]: 90%
viability, T/C [16]: 88.8%
viability, T/C [17]: 82.5%
viability, T/C [18]: 74.5%
viability, T/C [19]: 104%
viability, T/C [20]: 111%
viability, T/C [21]: 81.3%
viability, T/C [22]: 103%
viability, T/C [23]: 69.8%
viability, T/C [24]: 88.1%
viability, T/C [25]: 88.4%
viability, T/C [26]: 94.4%
viability, T/C [27]: 127%
viability, T/C [28]: 90%
viability, T/C [29]: 72.5%
viability, T/C [30]: 67.8%
viability, T/C [31]: 105%
viability, T/C [32]: 112%
viability, T/C [33]: 94.8%
viability, T/C [34]: 92.7%
viability, T/C [35]: 77.3%
viability, T/C [36]: 80.7%

IC50 (second compound 0.000949 µM): > 100 nM
IC50 (second compound 0.003 µM): > 100 nM
IC50 (second compound 0.00949 µM): > 100 nM
IC50 (second compound 0.03 µM): > 100 nM
IC50 (second compound 0.0949 µM): > 100 nM
IC50 (second compound 0.3 µM): > 100 nM
Compound: CC(C)n1nc(-c2ccc3oc(N)nc3c2)c2c(N)ncnc21 + CCn1c(-c2cccnc2C(C)OC)c2c3cc(ccc31)N1CCOC(CC(NC(=O)C(C(C)C)N(C)C(=O)C3(F)CCN(C(=O)C#CC(C)(C)N(C)C)CC3)C(=O)N3CCCC(N3)C(=O)OCC(C)(C)C2)C1
viability, T/C (second compound 0.000949 µM, first compound 0.000316 µM): 91.5%
viability, T/C (second compound 0.000949 µM, first compound 0.001 µM): 112%
viability, T/C [37]: 87.1%
viability, T/C [38]: 76.9%
viability, T/C [1]: 65.7%
viability, T/C [2]: 59.7%
viability, T/C (second compound 0.003 µM, first compound 0.000316 µM): 84.5%
viability, T/C (second compound 0.003 µM, first compound 0.001 µM): 103%
viability, T/C [39]: 73.8%
viability, T/C [40]: 73.6%
viability, T/C [7]: 75.3%
viability, T/C [8]: 70.1%
viability, T/C (second compound 0.00949 µM, first compound 0.000316 µM): 119%
viability, T/C (second compound 0.00949 µM, first compound 0.001 µM): 108%
viability, T/C [41]: 98.5%
viability, T/C [42]: 80%
viability, T/C [13]: 67.8%
viability, T/C [14]: 59.1%
viability, T/C (second compound 0.03 µM, first compound 0.000316 µM): 110%
viability, T/C (second compound 0.03 µM, first compound 0.001 µM): 87.2%
viability, T/C [43]: 77.3%
viability, T/C [44]: 86%
viability, T/C [19]: 66.9%
viability, T/C [20]: 50.2%
viability, T/C (second compound 0.0949 µM, first compound 0.000316 µM): 100%
viability, T/C (second compound 0.0949 µM, first compound 0.001 µM): 117%
viability, T/C [45]: 86.9%
viability, T/C [46]: 75%
viability, T/C [25]: 68.1%
viability, T/C [26]: 48.5%
viability, T/C (second compound 0.3 µM, first compound 0.000316 µM): 107%
viability, T/C (second compound 0.3 µM, first compound 0.001 µM): 89.2%
viability, T/C [47]: 96.3%
viability, T/C [48]: 73.2%
viability, T/C [31]: 71.6%
viability, T/C [32]: 57.3%

IC50 (second compound 0.000949 µM): > 10000 nM
IC50 (second compound 0.003 µM): > 10000 nM
IC50 (second compound 0.00949 µM): > 10000 nM
IC50 (second compound 0.03 µM): > 10000 nM
IC50 (second compound 0.0949 µM): > 10000 nM
IC50 (second compound 0.3 µM): > 10000 nM
Compound: CC(Nc1ccc2c(c1)OCCn1cc(N3C(=O)OCC3C(F)F)nc1-2)C(N)=O (stereo not drawn) + CCn1c(-c2cccnc2C(C)OC)c2c3cc(ccc31)N1CCOC(CC(NC(=O)C(C(C)C)N(C)C(=O)C3(F)CCN(C(=O)C#CC(C)(C)N(C)C)CC3)C(=O)N3CCCC(N3)C(=O)OCC(C)(C)C2)C1
viability, T/C [1]: 97.3%
viability, T/C [2]: 101%
viability, T/C [3]: 86.2%
viability, T/C [4]: 88.7%
viability, T/C [5]: 109%
viability, T/C [6]: 80.8%
viability, T/C [7]: 99.8%
viability, T/C [8]: 97.7%
viability, T/C [9]: 86.9%
viability, T/C [10]: 94.4%
viability, T/C [11]: 97.5%
viability, T/C [12]: 78.1%
viability, T/C [13]: 118%
viability, T/C [14]: 85.9%
viability, T/C [15]: 84%
viability, T/C [16]: 104%
viability, T/C [17]: 86.3%
viability, T/C [18]: 76.3%
viability, T/C [19]: 83.7%
viability, T/C [20]: 83.8%
viability, T/C [21]: 86.5%
viability, T/C [22]: 98.5%
viability, T/C [23]: 110%
viability, T/C [24]: 75.2%
viability, T/C [25]: 102%
viability, T/C [26]: 113%
viability, T/C [27]: 78.8%
viability, T/C [28]: 88.8%
viability, T/C [29]: 96.2%
viability, T/C [30]: 74.8%
viability, T/C [31]: 84.7%
viability, T/C [32]: 85.5%
viability, T/C [33]: 96.7%
viability, T/C [34]: 98.5%
viability, T/C [35]: 92.2%
viability, T/C [36]: 82.7%

IC50 (second compound 0.000949 µM): 74.2 nM
IC50 (second compound 0.003 µM): 125 nM
IC50 (second compound 0.00949 µM): 93.5 nM
IC50 (second compound 0.03 µM): 165 nM
IC50 (second compound 0.0949 µM): 25 nM
IC50 (second compound 0.3 µM): 73.8 nM
Compound: O=C(c1ccc(F)c(F)c1Nc1ccc(I)cc1F)N1CC(O)([C@@H]2CCCCN2)C1 + CCn1c(-c2cccnc2C(C)OC)c2c3cc(ccc31)N1CCOC(CC(NC(=O)C(C(C)C)N(C)C(=O)C3(F)CCN(C(=O)C#CC(C)(C)N(C)C)CC3)C(=O)N3CCCC(N3)C(=O)OCC(C)(C)C2)C1
viability, T/C [37]: 66.2%
viability, T/C [38]: 80.3%
viability, T/C [1]: 78.2%
viability, T/C [2]: 41.3%
viability, T/C [3]: 30.4%
viability, T/C [4]: 17.1%
viability, T/C [39]: 70.2%
viability, T/C [40]: 74.1%
viability, T/C [7]: 71.4%
viability, T/C [8]: 42.2%
viability, T/C [9]: 42.6%
viability, T/C [10]: 14.7%
viability, T/C [41]: 74.3%
viability, T/C [42]: 90%
viability, T/C [13]: 48.3%
viability, T/C [14]: 59.2%
viability, T/C [15]: 29.2%
viability, T/C [16]: 22.5%
viability, T/C [43]: 82.8%
viability, T/C [44]: 75.3%
viability, T/C [19]: 70.3%
viability, T/C [20]: 56%
viability, T/C [21]: 41.6%
viability, T/C [22]: 21%
viability, T/C [45]: 67.2%
viability, T/C [46]: 81.3%
viability, T/C [25]: 43.8%
viability, T/C [26]: 33.7%
viability, T/C [27]: 37.9%
viability, T/C [28]: 20.6%
viability, T/C [47]: 64.3%
viability, T/C [48]: 91.2%
viability, T/C [31]: 53.7%
viability, T/C [32]: 46.6%
viability, T/C [33]: 30.1%
viability, T/C [34]: 17.6%
